Results reported in PubChem BioAssay (NCI).
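In this assay, cells in 96-well plates receive the compound at five concentrations for 48 hours. Endpoints are linearly interpolated between the surrounding concentrations. TGI: concentration producing complete growth inhibition.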

Key:
Assay in all cases: NCI-60 cell line screen, 48 h
CCRF-CEM leukemia = tested on: CCRF-CEM leukemia
HL-60(TB) leukemia = tested on: HL-60(TB) leukemia
HT29 colon = tested on: HT29 colon
KM12 colon = tested on: KM12 colon
LOX IMVI melanoma = tested on: LOX IMVI melanoma
MCF7 breast = tested on: MCF7 breast
NCI-H460 lung = tested on: NCI-H460 lung
OVCAR-8 ovarian = tested on: OVCAR-8 ovarian
PC-3 prostate = tested on: PC-3 prostate
SR leukemia = tested on: SR leukemia
TK-10 renal = tested on: TK-10 renal
UACC-257 melanoma = tested on: UACC-257 melanoma

| SMILES | TGI (CCRF-CEM leukemia) [µM] | TGI (HL-60(TB) leukemia) [µM] | TGI (HT29 colon) [µM] | TGI (KM12 colon) [µM] | TGI (LOX IMVI melanoma) [µM] | TGI (MCF7 breast) [µM] | TGI (NCI-H460 lung) [µM] | TGI (OVCAR-8 ovarian) [µM] | TGI (PC-3 prostate) [µM] | TGI (SR leukemia) [µM] | TGI (TK-10 renal) [µM] | TGI (UACC-257 melanoma) [µM] |
| --- | --- | --- | --- | --- | --- | --- | --- | --- | --- | --- | --- | --- |
| Cc1nc2sc(C(=O)c3ccc(Cl)cc3)c(N)c2c(-c2ccccc2Cl)c1C(=O)Nc1ccccc1 | 19.9 | > 86.5 | 31.3 | 50 | 31.7 | 53.8 | 28.8 | 47.1 | 47 | 58.2 | 39.3 | 61.8 |
| CC(Oc1ccccc1)C(=O)NNC(=O)OC(C)(C)C (configuration not stated) | > 100 | > 100 | > 100 | > 100 | > 100 | > 100 | > 100 | > 100 | > 100 | > 100 | > 100 | > 100 |
| O=C(NO)NCCCl | > 100 | > 100 | > 100 | > 100 | > 100 | > 100 | > 100 | > 100 | > 100 | > 100 | > 100 | > 100 |
| CCC(C)C1=C(O)[N+]2([O-])Oc3ccc(-c4c(O)c(O)c(-c5ccc(OC(C)=O)cc5)c(OC(C)=O)c4OC(C)=O)cc3OC2(C(C)CC)C(=O)N1O (configuration not stated) | > 50 | > 50 | > 50 | > 50 | > 50 | > 50 | > 50 | > 50 | > 50 | > 50 | > 50 | > 50 |
| Nc1nc(Cl)c(Cl)c(NCC2(O)CCC2)n1 | > 100 | > 100 | > 100 | > 100 | > 100 | > 100 | > 100 | > 100 | > 100 | > 100 | > 100 | > 100 |
| O=C1C(c2c(O)[nH]c3ccc(Br)cc23)=Nc2ccc(Br)cc21 | > 100 | > 100 | > 100 | > 100 | > 100 | 43.1 | > 100 | 81.3 | > 100 | > 100 | > 100 | > 100 |
